Results on 13 compounds are retold here after ChEMBL document CHEMBL1201862, “PubChem BioAssay data set” (2004).

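Interpolation was linear, between the two tested concentrations surrounding the appropriate level; five concentrations were tested over 48 hours in 96-well plates. GI50 is the concentration that inhibits growth by half.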 Calls of active or inactive are those of the source. Cut-off read from the data, not from the text of the source: active = GI50 up to about 1.1 µM and inactive = higher. A value given as a limit tells only on which side of the number the result lay.

Assay in all cases: growth of human tumour cells (NCI), 48 h
In test [1] the test system is A498.
Test [2] deals with A549.
The test system of test [3] is ACHN.
Test [4] relates to CAKI-1.
In test [5] the test system is HT-29.
In test [6] the test system is K562.
Test [7] has as its system KM12.
The subject of test [8] is LOX IMVI.
Test [9] deals with M14.
Test [10] has as its system Malme-3M.
The test system of test [11] is OVCAR-5.
Test [12] relates to SK-OV-3.
The test system of test [13] is SNB-75.
For test [14], the system named is SR.
The test system of test [15] is SW-620.
Test [16] has as its system UACC-62.
Test [17] deals with NCI-H23.

For `Nc1nc(O)c2c(ncn2CC(O)CO)n1` (stereo not given), the GI50 in [1], in test [2], in [3], in [4], in test [5] and in [6] was > 100 µM (inactive) throughout. Moreover, the GI50 in test [7], in [8], in test [9], in test [10], in test [11] and in [12] was > 100 µM (inactive) throughout. The GI50 in test [13], in [14], in test [15] and in [16] was > 100 µM (inactive) in each case.
As for `CCOC(=O)C(C)(C)Oc1ccc2c(-c3ccc(Cl)cc3)c(-c3ccc(Cl)cc3)c(=O)oc2c1`, the GI50 in test [1], in test [2], in test [3], in test [5], in [6] and in [8] was > 100 µM (inactive) in each case. Besides, the GI50 in test [9], in test [10], in test [17], in test [13], in test [14] and in test [15] was > 100 µM (inactive) in each case. The GI50 in test [16] was > 100 µM (inactive).
For `CC1(OCc2ccccc2)C(=O)N2C1N(C(=O)OCc1ccccc1)CC2(C)C` (stereo not given), the GI50 is 56.9 µM (inactive) in [1]; 38.8 µM (inactive) in [2]; 61.1 µM (inactive) in test [3]; 67.8 µM (inactive) in [5]; 42.8 µM (inactive) in test [6]; 46.6 µM (inactive) in [8]. The GI50 is 66.8 µM (inactive) in test [9]; 80 µM (inactive) in [10]; 35.1 µM (inactive) in [17]; 32.4 µM (inactive) in test [13]; 30.5 µM (inactive) in [14]; > 100 µM (inactive) in test [15]. Also, the GI50 in test [16] is 38.5 µM (inactive).
Consider `CCN(CC)C(=O)N1CCN(C=S)CC1`, for which the GI50 in test [1], in [2], in [3], in test [5], in [6] and in [7] was > 100 µM (inactive) in each case. Also, the GI50 in test [8], in test [9], in test [10], in [17], in test [11] and in test [12] was > 100 µM (inactive) in each case. In addition, the GI50 in [13], in test [14], in test [15] and in test [16] was > 100 µM (inactive) throughout.
For the compound `Cn1nc2ccc3nccc(NCCNCCO)c3c2n1`, the GI50 in [2] was 40.2 µM (inactive); in test [3], 34.3 µM (inactive); in test [4] it was 63 µM (inactive); in [5], 20.5 µM (inactive); in test [6], 73.5 µM (inactive); in [7], 35 µM (inactive). The GI50 in [8] was 20.4 µM (inactive); in test [9], 32.5 µM (inactive); in test [10] it was 36.8 µM (inactive); in test [17], 39.4 µM (inactive); in test [11], 25 µM (inactive); in test [12] it was 34.1 µM (inactive). Besides, the GI50 in test [13] is 45.2 µM (inactive); in test [14], 10 µM (inactive); in test [15], 29.4 µM (inactive); in test [16], 33.3 µM (inactive).
Take `N#Cc1cc([N+](=O)[O-])ccc1NC(=O)C(=O)Nn1c(S)nc2ccccc2c1=O`: the GI50 in [1], in [2], in [4], in test [5], in test [6] and in test [7] was > 100 µM (inactive) in each case. Also, the GI50 in test [8], in test [9], in test [10], in test [17], in [11] and in test [12] was > 100 µM (inactive) in each case. For the same compound, the GI50 in test [13], in test [14] and in test [15] was > 100 µM (inactive) in each case.
As to `CCOC(=O)C(C)(C)Oc1ccc2c(-c3ccccc3)cc(=O)oc2c1`, the GI50 was 30.2 µM (inactive) in test [1]; 38.9 µM (inactive) in [2]; 40.2 µM (inactive) in [3]; > 10 µM (inactive) in test [5]; 27.6 µM (inactive) in test [6]; 20.2 µM (inactive) in test [8]. Moreover, the GI50 in test [9] was 36.6 µM (inactive); in [10] it was 28.6 µM (inactive); in test [17] it was 29 µM (inactive); in [13], 12.9 µM (inactive); in test [14] it was 24.9 µM (inactive); in test [15], 36.7 µM (inactive). The GI50 in [16] is 18.3 µM (inactive).
Take `CC(=O)N1CCC2(C=Nc3ccccc32)CC1`: the GI50 in test [1], in [2], in test [3], in test [4], in [5] and in [6] was > 100 µM (inactive) throughout. Moreover, the GI50 in [7], in [8], in test [9], in test [10], in test [17] and in [11] was > 100 µM (inactive) throughout. Moreover, the GI50 in test [12], in test [13], in test [15] and in test [16] was > 100 µM (inactive) throughout.
With `O=[N+]([O-])c1ccc(-c2ccc(C3=Nn4c(CNc5ccccc5Cl)nnc4SC3)o2)cc1`, the GI50 in [2] is > 100 µM (inactive); in test [3], 32.6 µM (inactive); in test [4], > 100 µM (inactive); in test [5], > 100 µM (inactive); in test [6], 58.3 µM (inactive); in test [7], > 100 µM (inactive). The GI50 was 42.7 µM (inactive) in test [8]; > 100 µM (inactive) in test [9]; > 100 µM (inactive) in test [10]; 87.9 µM (inactive) in [17]; > 100 µM (inactive) in [11]; > 100 µM (inactive) in test [12]. For the same compound, the GI50 in [13], in test [14], in [15] and in test [16] was > 100 µM (inactive) each time.
`NNC(=O)C(=O)N/N=C1/CCCC1C(=O)CCC(=O)Nc1ccc(Cl)cc1` (stereo not given): the GI50 in [1] was > 100 µM (inactive); in [2], > 100 µM (inactive); in test [3] it was 15.3 µM (inactive); in [4], 20.5 µM (inactive); in test [5] it was > 100 µM (inactive); in test [6], 12.1 µM (inactive). Further, the GI50 is > 100 µM (inactive) in test [7]; 52.2 µM (inactive) in test [9]; > 100 µM (inactive) in test [10]; > 100 µM (inactive) in [17]; > 100 µM (inactive) in [11]; > 100 µM (inactive) in [12]. Besides, the GI50 was > 100 µM (inactive) in test [13], > 100 µM (inactive) in [14], > 100 µM (inactive) in test [15] and 2.49 µM (inactive) in [16].
Consider `CN(C)CCNC(=O)c1cccc2c1nc(-c1ccc(F)cc1)c1ccccc12`, for which the GI50 in test [1] was 2.2 µM (inactive); in test [2] it was 0.935 µM (active); in [3] it was 2.64 µM (inactive); in test [4], 3.27 µM (inactive); in test [5], 3.85 µM (inactive); in test [6], 2.44 µM (inactive). Also, the GI50 is 5.93 µM (inactive) in test [7]; 1.83 µM (inactive) in test [8]; 5.81 µM (inactive) in test [9]; 5.71 µM (inactive) in test [17]; 3.63 µM (inactive) in test [11]; 8.47 µM (inactive) in test [12]. For the same compound, the GI50 in test [13] is 10.7 µM (inactive); in test [15], 2.27 µM (inactive); in test [16], 3.09 µM (inactive).
Turning to `C=CC(Br)(CBr)CCC(Br)C(C)(C)Br` (stereo not given), the GI50 in [2] was 14.6 µM (inactive); in test [3], 12.7 µM (inactive); in [4], 22.8 µM (inactive); in test [5] it was 13.2 µM (inactive); in test [6] it was 17.3 µM (inactive); in test [7], 9.14 µM (inactive). The GI50 in [8] is 12.4 µM (inactive); in test [9], 15 µM (inactive); in [10] it was 16.6 µM (inactive); in [17], 15.7 µM (inactive); in [11], 18.5 µM (inactive); in test [12], 19.4 µM (inactive). Further, the GI50 in [13] is 10.3 µM (inactive); in test [14] it was 3.81 µM (inactive); in test [15], 13.7 µM (inactive); in [16], 12 µM (inactive).
Take `[O-][S+](c1ccc(O)cc1)c1ccc(O)cc1`: the GI50 in [2], in test [4], in test [5], in [6], in [7] and in test [8] was > 100 µM (inactive) each time. Also, the GI50 in test [9], in [10], in [17], in test [11], in test [12] and in [13] was > 100 µM (inactive) in each case. In addition, the GI50 in test [15] and in test [16] was > 100 µM (inactive) throughout.
